Experiment: Solubility in aqueous solutions
Format: physicochemical
Method: The hydroquinones provided herein may be converted into salt form by reaction with an acid, or by reaction with an acid halide of an amino acid. In the examples, the C-17 alkyl amino group is protonated to generate a C-17 ammonium salt hydroquinone geldanamycin analog. In addition, the C-17 ammonium salt hydroquinones formed have the added benefit of being highly soluble in aqueous solutions (solubility >200 mg/mL), unlike 17-AAG (solubility <100 μg/mL).

- solubility: < 100 µg/mL
SMILES: C=CCNC1=C2C[C@@H](C)C[C@H](OC)[C@H](O)[C@@H](C)/C=C(\C)[C@H](OC(N)=O)[C@@H](OC)/C=C\C=C(/C)C(=O)NC(=CC1=O)C2=O [Compound 17-AAG]

From patent US20080255080A1, “Hydroquinone Ansamycin Formulations” (priority 2007, published 2008)
